Source: patent US20200061038A1, “THERAPEUTIC AGENT FOR FIBROSIS AND INHIBITOR OF NUCLEAR TRANSLOCATION OF PHOSPHORYLATED SMAD” (NATIONAL UNIVERSITY CORPORATION CHIBA UNIVERSITY, priority 2016, published 2020)

How the values were obtained:
αSMA = αSMA expression (western blot) in TGFβ1-stimulated HFL1 cells; type: cell-based, human; settings: for increase in the αSMA expression level due to TGFβ1 (PKC inhibitors): GF109203X 10 μM, Rottlerin 1 μM, GO06976 0.5 μM and 1.0 μM, 30 minutes before TGFβ1 10 ng/mL; for αSMA expression level recovered, relative to the level when TGFβ1 alone was applied: used together with PPMP (3 μM), lactosylceramide 10 μM
Description: Human pulmonary fibroblast (HFL1) (ATCC CCL-153) cells were cultured under the conditions of 95% air-5% CO2 and 37° C., using a Dulbecco's Modified Eagle Medium (DMEM) containing 10% fetal bovine serum (FBS), 100 μg/mL streptomycin, and 66.7 μg/mL penicillin.
How an increase in lactosylceramide synthesis activity due to TGFβ1 affects the fibrosing of tissues was examined based on the expression level of αSMA, which is a fibrosing marker protein.

Smad2 [1] = test: Smad2 nuclear localization (immunofluorescent staining, confocal) in HFL1 cells; type: cell-based, human; settings: TGFβ1 10 ng/mL; for nuclear localization of Smad2 due to TGFβ1 (PKC inhibitors): GF109203X 10 μM, Rottlerin 1 μM, GO06976 1 μM
Description: For immunostaining of Smad and phosphorylated Smad, ribonuclease A (RNase, Worthington Biochemical) (200 μg/mL, room temperature, 30 minutes) and propidium iodide (PI, Cayman Chemical) (20 μg/mL, room temperature, 30 minutes) were applied to stain the nucleus, and the stained images were observed using a confocal microscope (FV500 manufactured by Olympus).
When localization of Smad2/3 was observed, on the other hand, Smad2/3 accumulated in the nucleus in 3 hours after the single stimulation of TGFβ1 (10 ng/mL).

Smad2 [2] = test: Smad2 phosphorylation (western blot) in HFL1 cells; type: cell-based, human; settings: for phosphorylation level of Smad2 due to TGFβ1 treatment (PKC inhibitors): GF109203X 10 μM, Rottlerin 1 μM; for phosphorylation level of Smad2 due to TGFβ1 treatment (PKC inhibitors) / phosphorylation level of Smad2 (ROCK pathway): TGFβ1 10 ng/mL; for phosphorylation level of Smad2 (ROCK pathway): Y27632 20 μM, Cytochalasin B 2 μM
Description: HFL1 cells were inoculated onto a six-well plate by 1.0×10^5 cells/well, and then cultured in 2.0 mL of DMEM containing 10% FBS, to achieve 70% confluence. The cells were washed using Hanks' balanced salt solution (HBSS) containing 0.1% bovine serum albumin (BSA) (4.2 mM NaHCO3, 137 mM NaCl, 5.36 mM KCl, 0.4 mM MgSO4.7H2O, 0.34 mM Na2HPO4.12H2O, 5.55 mM glucose, 0.44 mM KH2PO4, 0.72 mM CaCl2.H2O, pH=7.4), and then cultured in a DMEM containing 0.1% BSA for 48 hours without serum.
Thereafter, the medium was replaced by a DMEM containing 0.1% BSA, and stimulation was given for a specified period using each reagent (each inhibitor was applied 30 minutes before the stimulant), after which the cells were collected on ice using 100 μL of RIPA buffer (150 mM NaCl, 50 mM Tris-HCl, 5 mM EDTA, 5 mM NaF, 10 mM sodium pyrophosphate dibasic, 1% Nonidet P-40, 0.1% sodium dodecyl sulfate, 0.5% sodium deoxycholate, pH 8.0) containing 10 μg/mL aprotinin, 10 μg/mL leupeptin, and phenyl methyl sulfonyl fluoride (PMSF) as a protease inhibitor.
The cells were crushed according to the vortex method, centrifuged under the conditions of 15000 rpm and 4° C. for 30 minutes, and the supernatant was taken as a sample. Quantitative determination of protein was performed according to the Bradford method, and a specified amount of protein was separated by SDS-polyacrylic amide gel electrophoresis. The protein was transferred onto a polyvinylidene difluoride (PVDF) film, blocked for 1 hour at room temperature, with a primary antibody applied overnight at 4° C., and a secondary antibody applied for 1 hour at room temperature.
Thereafter, the PVDF film was soaked in an ECL solution and fluorometric detection was performed using an image capture/analysis system (ChemiDocMP System manufactured by Bio-Rad). The detected bands were converted to numerical values using image processing software (ImageJ).

[3] = tested on: idiopathic pulmonary fibrosis; settings: patients suffering from idiopathic pulmonary fibrosis; Non-patent Literature 2; cited from earlier work
PKCδ = test: Translocation of PKCδ into the cellular membrane in HFL1 cells; type: cell-based, human
Description: HFL1 cells were inoculated onto a 3.5-cm glass-bottom dish by 1.0×10^4 cells/dish, and then cultured in 2.0 mL of DMEM containing 10% FBS, to achieve 70% confluence. The cells were washed in HBSS containing 0.1% BSA, and then cultured in DMEM containing 0.1% BSA for 48 hours without serum.
Thereafter, the medium was replaced by a DMEM containing 0.1% BSA, and stimulation was given for a specified period using each reagent (each inhibitor was applied 30 minutes before the stimulant), after which each sample was fixed with 4% paraformaldehyde (PFA) at 4° C. for 15 minutes. Thereafter, as deemed appropriate, the sample was permeabilized (0.3% saponin, room temperature, 1 hour) and blocked (3% BSA, room temperature, 1 hour), with a primary antibody applied overnight at 4° C., and a secondary antibody applied for 1 hour at room temperature. For immunostaining of Smad and phosphorylated Smad, ribonuclease A (RNase, Worthington Biochemical) (200 μg/mL, room temperature, 30 minutes) and propidium iodide (PI, Cayman Chemical) (20 μg/mL, room temperature, 30 minutes) were applied to stain the nucleus, and the stained images were observed using a confocal microscope (FV500 manufactured by Olympus).
In general, activation of PKC is observed in the form of its translocation into the cellular membrane; accordingly, involvement of lactosylceramide was examined using the translocation of PKCδ into the cellular membrane as an indicator.

Cn1c2ccccc2c2c3c(c4c5ccccc5n(CCC#N)c4c21)CNC3=O [GO06976]
increase in the αSMA expression level due to TGFβ1 (PKC inhibitors) (αSMA): did not suppress the increase in the αSMA expression level
nuclear localization of Smad2 due to TGFβ1 (PKC inhibitors) (Smad2 [1]): did not change

CN(C)CCCn1cc(C2=C(c3c[nH]c4ccccc34)C(=O)NC2=O)c2ccccc21 [GF109203X]
increase in the αSMA expression level due to TGFβ1 (PKC inhibitors) (αSMA): suppressed significantly
phosphorylation level of Smad2 due to TGFβ1 treatment (PKC inhibitors) (Smad2 [2]): no change was observed
nuclear localization of Smad2 due to TGFβ1 (PKC inhibitors) (Smad2 [1]): suppressed significantly

COC(=O)c1ccc2c(c1)NC(=O)/C2=C(\Nc1ccc(N(C)C(=O)CN2CCN(C)CC2)cc1)c1ccccc1 [nintedanib]
forced vital capacities of patients [3]: improve the forced vital capacities
survival periods of patients [3]: cannot extend the survival periods

glucosylceramide
αSMA expression level recovered, relative to the level when TGFβ1 alone was applied (αSMA; TGFβ1 10 ng/mL): approx. 80%

CC(=O)c1c(O)c(C)c(O)c(Cc2c(O)c3c(c(C(=O)/C=C/c4ccccc4)c2O)OC(C)(C)C=C3)c1O [Rottlerin]
increase in the αSMA expression level due to TGFβ1 (PKC inhibitors) (αSMA): suppressed significantly
phosphorylation level of Smad2 due to TGFβ1 treatment (PKC inhibitors) (Smad2 [2]): no change was observed
nuclear localization of Smad2 due to TGFβ1 (PKC inhibitors) (Smad2 [1]): suppressed significantly
translocation of PKCδ into the cellular membrane due to TGFβ1 (PKCδ; PPMP 3 μM, Rottlerin 1 μM applied beforehand, two hours after TGFβ1 10 ng/mL): translocation of PKCδ into the cellular membrane was suppressed

lactosylceramide
recovery of the αSMA expression level suppression action (αSMA; lactosylceramide 10 μM in combined use with PPMP or NB-DNJ, TGFβ1 10 ng/mL): led to a recovery of the αSMA expression level suppression action
αSMA expression level recovered, relative to the level when TGFβ1 alone was applied (αSMA; TGFβ1 10 ng/mL): approx. 95%
phosphorylation of Smad2 by the substance alone (Smad2 [2]; lactosylceramide 10 μM alone, no TGFβ1): did not cause phosphorylation of Smad2
accumulation of Smad2 in the nucleus, combined use with PPMP (Smad2 [1]; lactosylceramide 10 μM combined with PPMP): led to a recovery of the suppression action due to PPMP, and Smad2 accumulated in the nucleus
time the localization of PKCδ on the cellular membrane was sustained (PKCδ; lactosylceramide 10 μM alone): at least 30 minutes
translocation of PKCδ into the cellular membrane by the substance alone (PKCδ; lactosylceramide 10 μM alone, five minutes after the stimulation): translocation of PKCδ into the cellular membrane was observed

C[C@@H](N)[C@H]1CC[C@H](C(=O)Nc2ccncc2)CC1 [Y27632]
phosphorylation level of Smad2 (ROCK pathway) (Smad2 [2]): the phosphorylation level did not change

CCCCCCCCCCCCCC(=O)O[C@@H]1[C@@H](C)[C@@]2(O)[C@@H](C=C(CO)C[C@]3(O)C(=O)C(C)=C[C@@H]23)[C@@H]2C(C)(C)[C@]12OC(C)=O [PMA, phorbol myristate acetate]
increase in the αSMA expression level due to TGFβ1 (PKC down-regulation) (αSMA; PMA 100 nM overnight treatment, TGFβ1 10 ng/mL): suppressed the increase in the αSMA expression level

C=C1[C@@H](C)[C@H]2[C@H](Cc3ccccc3)NC(=O)[C@]23OC(=O)/C=C/[C@H](O)CCC[C@@H](C)C/C=C/[C@H]3[C@@H]1O [Cytochalasin B]
phosphorylation level of Smad2 (ROCK pathway) (Smad2 [2]): the phosphorylation level did not change

Cc1ccc(=O)n(-c2ccccc2)c1 [pirfenidone]
forced vital capacities of patients [3]: improve the forced vital capacities
survival periods of patients [3]: cannot extend the survival periods
